According to article PMC9605374 (Marine Drugs, 2022):
Like-named read-outs stand apart in the source and are kept apart here.

What was measured:
22Rv1 = assay: MTT assay, cell viability; assay type: cell-based; settings: Homo sapiens, 22Rv1, 48 h of treatment, mean ± SD
From the text: (§1) To examine the anticancer potential and selectivity of NB, we used a panel of six human prostate cancer cell lines, harboring different levels of treatment resistance to representatively reflect the heterogeneity of the disease. […] Additionally, four human noncancer cells lines were utilized in order to determine the selectivity of NB towards prostate cancer cells, i.e., prostate noncancer PNT2 and RWPE-1 cells, human embryonic kidney HEK 293T cells, and human fibroblasts MRC-9. The different cell lines were treated with NB and the cell viability was examined using MTT assay (Figure 1). The mean IC50 of NB and docetaxel (used as a reference substance) in noncancerous cell lines was divided by the mean IC50 in the prostate cancer cell lines to determine the selectivity index (SI).
(§2) The MTT assay was used to monitor the effect of the drugs on cell viability in terms of metabolic activity, as previously reported. First, preincubation of the cells in 96-well plates (6 × 10^3 cells/well in 100 μL/well) was performed overnight in the correspondent culture medium. Next, the medium was exchanged for fresh medium containing the investigated compounds or a vehicle (100 μL/well). Cells were then incubated for 48 h, unless otherwise stated. Then, 10 μL/well of 3-(4,5-dimethylthiazol-2-yl)-2,5-diphenyltetrazolium bromide reagent (MTT, 5 mg/mL) were added. After 2–4 h of additional incubation the media was removed, and the plates were dried. Finally, 50 μL/well of DMSO were added to solve the formed formazan crystals produced by the metabolic active cells and Infinite F200PRO reader (TECAN, Männedorf, Switzerland) was used to measure the cell viability. The results were proceeded with a GraphPad Prism software v.9.1.1 (GraphPad Software, San Diego, CA, USA). Cells treated with the solvent of the drugs alone were used as a control (100% alive cells). The effect of the drugs on cell viability is represented as IC50.

DU145 = assay: MTT assay, cell viability; assay type: cell-based; settings: Homo sapiens, DU-145, DU145, 48 h of treatment, mean ± SD
From the text: as §1, §2

HEK293 = assay: MTT assay, cell viability; assay type: cell-based; settings: Homo sapiens, HEK293, 48 h of treatment, mean ± SD
From the text: as §1, §2

MRC-9 = assay: MTT assay, cell viability; assay type: cell-based; settings: Homo sapiens, MRC9, MRC-9, 48 h of treatment, mean ± SD
From the text: as §1, §2

PC3 = assay: MTT assay, cell viability; assay type: cell-based; settings: Homo sapiens, PC-3, PC3, 48 h of treatment, mean ± SD
From the text: as §1, §2

PNT2 = assay: MTT assay, cell viability; assay type: cell-based; settings: Homo sapiens, PNT2, 48 h of treatment, mean ± SD
From the text: as §1, §2

RWPE-1 = assay: MTT assay, cell viability; assay type: cell-based; settings: Homo sapiens, RWPE-1, 48 h of treatment, mean ± SD
From the text: as §1, §2

VCaP = assay: MTT assay, cell viability; assay type: cell-based; settings: Homo sapiens, 48 h of treatment, mean ± SD
From the text: as §1, §2

PC3-DR = assay: MTT assay, cell viability; assay type: cell-based, human; settings: Homo sapiens, PC3-DR, 48 h of treatment, mean ± SD
From the text: as §1, §2

prostate cancer cells = assay: MTT assay, mean IC50 in cancer cell panel and selectivity index; assay type: cell-based, human
From the text: as §1, §2

noncancer cells = assay: MTT assay, mean IC50 in noncancer cell panel; assay type: cell-based; settings: Homo sapiens, mean over PNT2, RWPE-1, HEK293, MRC-9, 48 h
From the text: as §1
The MTT assay was used to monitor the effect of the drugs on cell viability in terms of metabolic activity, as previously reported. First, preincubation of the cells in 96-well plates (6 × 10^3 cells/well in 100 μL/well) was performed overnight in the correspondent culture medium. Next, the medium was exchanged for fresh medium containing the investigated compounds or a vehicle (100 μL/well). […] Finally, 50 μL/well of DMSO were added to solve the formed formazan crystals produced by the metabolic active cells and Infinite F200PRO reader (TECAN, Männedorf, Switzerland) was used to measure the cell viability. […]

PC3-DR cells [1] = assay: Drug combination study NB with docetaxel, MTT assay, SynergyFinder 2.0; assay type: cell-based; settings: Homo sapiens, PC3-DR, NB 0, 24 h, MTT
Description: Thus, drug-resistant PC3-DR cells were treated with docetaxel in combination with NB (Figure 9). Potential synergism between NB and docetaxel was measured by the Chou–Talalay method as described before.
Figure 9 Combinational treatment on PC3-DR cells with NB and docetaxel. […] MTT assay was used to examine cellular viability. Number of replicates n = 3. (A) The heatmap represents cytotoxicity (viability inhibition) of the individual drugs or their combinations. (B,C) To calculate and visualize in 2D (B) or 3D (C) the effect of the drug combination (synergism/additive effect/antagonism), the SynergyFinder v. 2.0 software (Network Pharmacology for Precision Medicine in the Research Program of System Oncology, Faculty of Medicine at University of Helsinki, Helsinki, Finland) and a ZIP reference model were used. Green regions indicate antagonism, white regions refer to additive effect, and red regions indicate synergism.
(§3) The experiments were carried out as previously reported. […] 22Rv1 cells (6 × 10^3 cells/well in 96-well plates) were simultaneously treated with NB and docetaxel; or pretreated with MAPK inhibitors for 1 h following treatment with NB in the total media volume of 100 µL/well. Following 24 h of incubation, the viability of the cells treated with individual drugs as well as their combinations was determined using MTT assay. […] Red areas (positive δ-values) and green areas (negative δ-values) indicate synergism and antagonism, respectively.

PC3-DR cells [2] = settings: PC3-DR vs PC3; cited from earlier work
HeLa cells = test system: HeLa cells; set-up: method as in PMID 28051860; settings: cited from earlier work
22Rv1 cells [3] = assay: Annexin-V-FITC/PI double staining, flow cytometry; assay type: cell-based, human; settings: 22Rv1, zVAD 100 µM 1 h pretreatment, 48 h
Description: Figure 4 Investigation of the proapoptotic activity of NB. Flow cytometry analysis of 22Rv1 cells after 48 h of treatment. (A) Cell cycle and DNA fragmentation analysis. Treated cells were stained with PI and analyzed using a flow cytometry technique. Sub-G1 population was assumed to be apoptotic cells containing fragmentated DNA. (B) Analysis of phosphatidylserine externalization. Treated cells were double-stained with annexin-V-FITC and PI and analyzed using the flow cytometry technique. Cells of the low left quadrant (annexin-V-FITC^−/PI^−) were considered as alive cells. The Cell Quest Pro v.5.2.1 software (BD Bioscience, San Jose, CA, USA) was used to analyze and quantify the FACS data. Cells treated for 48 h with 10 µM of anisomycin were used as a positive control. Number of replicates n = 3. Statistical significance: * p < 0.05 (ANOVA). […]
Externalization of phosphatidylserine is a distinct marker of apoptotic cell death that can be detected by flow cytometry using annexin-V-FITC and propidium iodide (PI) double staining. […] Cells were harvested utilizing trypsin, stained with annexin-V-FITC and propidium iodide, and analyzed using FACS Calibur (BD Bioscience, San Jose, CA, USA).

22Rv1 cells [4] = assay: Drug combination study NB with MAPK inhibitors, MTT assay, SynergyFinder 2.0; assay type: cell-based; settings: Homo sapiens, MTT
From the text: Whether activation of MAPKs contribute to cell death or survival depends not only on the cellular context, but also on the nature of the activating stimuli. Thus, to reveal the function of JNK1/2 and p38 in the anticancer effect of NB, we co-treated 22Rv1 cells with NB and specific inhibitors of the above-mentioned MAPKs. […] As MEK1/2 kinase directly and exclusively activates ERK1/2, PD98039 inhibitor is often used as an ERK1/2 inhibitor [38]. Thus, an inactivation of MEK1/2 leads solely to an inhibition of ERK1/2 [38]. Since the inhibitors themselves exert cytotoxic effects in cancer cells, we used a Chou–Talalay method to distinguish between synergism, additive effects, or antagonistic effects of the particular MAPK inhibitor on the compound bioactivity. For this, using an MTT assay, we determined a cytotoxic effect on various concentrations of NB, MAPK inhibitors, and their combinations in 22Rv1 cells. The viability data were further analyzed using the SynergyFinder v. 2.0 software (Network Pharmacology for Precision Medicine in the Research Program of System Oncology, Faculty of Medicine at University of Helsinki, Helsinki, Finland) and a Zero interaction potency (ZIP) reference model (Figure 7).
as §3

CC(=O)O[C@@]12CO[C@@H]1C[C@H](O)[C@@]1(C)C(=O)[C@H](O)C3=C(C)[C@@H](OC(=O)[C@H](O)[C@@H](NC(=O)OC(C)(C)C)c4ccccc4)C[C@@](O)([C@@H](OC(=O)c4ccccc4)[C@H]21)C3(C)C [Docetaxel, docetaxel, reference compound]
IC50 (22Rv1): 0.6 ± 0.12 nM
IC50 (DU145): 2.2 ± 0.6 nM
IC50 (HEK293): 11.5 ± 3.22 nM
IC50 (MRC-9): > 500 nM
IC50 (PC3): 7.49 ± 7.09 nM
IC50 (PNT2): > 500 nM
IC50 (RWPE-1): 0.42 ± 0.23 nM
IC50 (VCaP): 0.23 ± 0.22 nM
IC50 (PC3-DR): 325 ± 21.7 nM
IC50 (prostate cancer cells; Homo sapiens, mean over PC3, PC3-DR, DU145, 22Rv1, VCaP, LNCaP, 48 h, MTT): 56.8 nM
Selectivity Index (SI) (prostate cancer cells; [mean IC50 in noncancer cells]/[mean IC50 in cancer cells]): 4.5
IC50 (noncancer cells): 253 nM
inhibition at 0.00625 µM (PC3-DR cells [1]; docetaxel 6.25 nM): 8.64%
inhibition at 0.025 µM (PC3-DR cells [1]; docetaxel 25 nM): 18.7%
inhibition at 0.1 µM (PC3-DR cells [1]; docetaxel 100 nM): 31%
inhibition at 0.4 µM (PC3-DR cells [1]; docetaxel 400 nM): 58.8%
fold less sensitivity of PC3-DR compared to parental cell line (PC3-DR cells [2]): ~ 50 fold
fold more resistant compared to the parental cell line PC3 (PC3-DR cells [2]): ~ 50 fold

COc1ccc2cc(NC(=O)C3=NO[C@H]4[C@H](O)C=C[C@@H](Cl)[C@@]4(O)C3)c(=O)oc2c1OC [trichodermamide B]
cytotoxic activity in HeLa cells (HeLa cells): high cytotoxic activity

COc1ccc(C[C@H]2NC[C@H](O)[C@H]2OC(C)=O)cc1 [Anisomycin, anisomycin, reference compound]
effect of pretreatment with pan-caspase inhibitor zVAD on drug-induced cell death (22Rv1 cells [3]): strongly inhibited

C[S+]([O-])c1ccc(-c2nc(-c3ccncc3)c(-c3ccc(F)cc3)[nH]2)cc1 (stereo not drawn) [SB203580, reference compound]
inhibition at 12.5 µM (22Rv1 cells [4]; 22Rv1, 22Rv1, inhibitor alone 12.5 μM (NB 0)): 27.6%
inhibition at 25 µM (22Rv1 cells [4]; 22Rv1, 22Rv1, inhibitor alone 25 μM (NB 0)): 39.7%
inhibition at 50 µM (22Rv1 cells [4]; 22Rv1, 22Rv1, inhibitor alone 50 μM (NB 0)): 53.3%
inhibition at 100 µM (22Rv1 cells [4]; 22Rv1, 22Rv1, inhibitor alone 100 μM (NB 0)): 63.9%

COc1ccc2cc(NC(=O)C3=NO[C@H]4[C@H](O)C=C[C@@H](O)[C@@]4(O)C3)c(=O)oc2c1OC [trichodermamide A]
cytotoxic activity in HeLa cells (HeLa cells): inactive

Oc1c2ccccc2c2c3c(cccc13)N=N2 [SP600125, reference compound]
inhibition at 12.5 µM (22Rv1 cells [4]; 22Rv1, inhibitor alone 12.5 μM (NB 0), read-out: Inhibition (%)): -5.92%
inhibition at 25 µM (22Rv1 cells [4]; 22Rv1, inhibitor alone 25 μM (NB 0), read-out: Inhibition (%)): 0.99%
inhibition at 50 µM (22Rv1 cells [4]; 22Rv1, inhibitor alone 50 μM (NB 0), read-out: Inhibition (%)): 19.4%
inhibition at 100 µM (22Rv1 cells [4]; 22Rv1, inhibitor alone 100 μM (NB 0), read-out: Inhibition (%)): 27.5%

COc1ccc2cc(N(C)C(=O)C3=NO[C@H]4[C@H](O)C=C[C@@H](O)[C@@]4(O)C3)c(=O)oc2c1OC [trichodermamide C]
cytotoxic activity in HeLa cells (HeLa cells): inactive
